Data published in patent US4950591A, “Membrane Na^+ channel protein and related therapeutic compounds” (priority 1987, dated 1990).

Columns and labels:
[1] = molecular target: T1, purified Na^+ channel protein (Bos taurus, UniProt A5D7U4+F1MJW3+P55270); assay: Amiloride inhibition of purified reconstituted channel; format: biochemical, bovine
T1 construct: purifying a membrane protein from bovine kidney cortex and bovine trachea epithelia apical membranes; from tissue
T1 sequence (P55270 1-650): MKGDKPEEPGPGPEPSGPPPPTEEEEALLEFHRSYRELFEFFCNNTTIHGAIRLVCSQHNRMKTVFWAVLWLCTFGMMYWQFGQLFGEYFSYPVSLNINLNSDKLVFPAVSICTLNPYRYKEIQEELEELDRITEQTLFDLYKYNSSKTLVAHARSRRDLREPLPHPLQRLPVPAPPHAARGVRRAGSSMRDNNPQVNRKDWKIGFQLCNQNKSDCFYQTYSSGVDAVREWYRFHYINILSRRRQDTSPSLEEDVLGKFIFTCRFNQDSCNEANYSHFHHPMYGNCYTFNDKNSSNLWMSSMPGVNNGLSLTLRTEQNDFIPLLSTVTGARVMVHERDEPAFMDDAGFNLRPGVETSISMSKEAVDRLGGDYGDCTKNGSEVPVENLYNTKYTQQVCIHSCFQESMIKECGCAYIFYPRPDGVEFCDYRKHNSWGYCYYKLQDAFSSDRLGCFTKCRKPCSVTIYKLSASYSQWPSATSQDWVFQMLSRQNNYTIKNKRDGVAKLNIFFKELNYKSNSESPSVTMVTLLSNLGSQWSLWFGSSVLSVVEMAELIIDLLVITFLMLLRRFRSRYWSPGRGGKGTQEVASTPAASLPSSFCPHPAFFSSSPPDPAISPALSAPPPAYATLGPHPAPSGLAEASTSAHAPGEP
T1 sequence (A5D7U4 1-641): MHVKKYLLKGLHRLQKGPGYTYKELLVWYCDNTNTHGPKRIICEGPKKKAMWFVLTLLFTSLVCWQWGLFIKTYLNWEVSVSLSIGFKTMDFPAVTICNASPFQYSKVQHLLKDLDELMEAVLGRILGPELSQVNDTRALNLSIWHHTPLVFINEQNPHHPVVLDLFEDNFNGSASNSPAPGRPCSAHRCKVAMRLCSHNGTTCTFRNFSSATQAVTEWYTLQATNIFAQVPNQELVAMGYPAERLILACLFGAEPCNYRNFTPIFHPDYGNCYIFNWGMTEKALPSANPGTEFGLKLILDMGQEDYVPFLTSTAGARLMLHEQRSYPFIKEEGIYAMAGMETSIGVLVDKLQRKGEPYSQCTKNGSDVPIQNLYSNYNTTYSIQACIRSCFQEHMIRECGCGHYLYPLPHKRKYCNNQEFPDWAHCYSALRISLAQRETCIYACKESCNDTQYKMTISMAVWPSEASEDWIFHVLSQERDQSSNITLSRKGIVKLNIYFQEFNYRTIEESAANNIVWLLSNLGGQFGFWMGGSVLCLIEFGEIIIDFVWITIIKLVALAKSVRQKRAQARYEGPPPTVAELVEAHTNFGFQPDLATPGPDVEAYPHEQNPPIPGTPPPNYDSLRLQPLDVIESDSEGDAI
T1 sequence (F1MJW3 1-652): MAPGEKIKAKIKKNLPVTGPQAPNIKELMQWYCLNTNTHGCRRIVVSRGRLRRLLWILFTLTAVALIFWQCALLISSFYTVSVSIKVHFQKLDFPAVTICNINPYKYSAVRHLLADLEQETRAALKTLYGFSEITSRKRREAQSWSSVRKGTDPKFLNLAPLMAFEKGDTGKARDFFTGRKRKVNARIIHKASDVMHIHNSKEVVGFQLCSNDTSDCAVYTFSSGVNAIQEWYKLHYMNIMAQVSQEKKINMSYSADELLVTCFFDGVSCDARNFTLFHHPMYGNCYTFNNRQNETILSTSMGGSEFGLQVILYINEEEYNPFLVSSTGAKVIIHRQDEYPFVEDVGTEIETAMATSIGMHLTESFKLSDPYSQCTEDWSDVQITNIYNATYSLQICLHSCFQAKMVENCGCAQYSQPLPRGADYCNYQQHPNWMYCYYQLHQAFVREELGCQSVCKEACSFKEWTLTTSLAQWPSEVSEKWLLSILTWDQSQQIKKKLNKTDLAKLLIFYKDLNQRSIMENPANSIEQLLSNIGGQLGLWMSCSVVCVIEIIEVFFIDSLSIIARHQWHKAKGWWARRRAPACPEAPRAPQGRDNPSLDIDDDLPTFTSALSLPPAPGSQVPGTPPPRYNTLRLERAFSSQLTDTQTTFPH
Method: By way of illustrative example, bovine kidney cortex cell membranes or bovine trachea apical cell membranes are collected and pooled until the pooled membranes contain about 100 mg of protein as determined by the Lowry method. The pooled membranes in 100 mM HEPES, pH 7.4, are centrifuged at 40,000 g for 30 minutes. The pelleted material was resuspended in 100 mM HEPES, pH 7.4, containing 3% sodium cholate (4.5-5.5 mg of membrane protein/3 ml of solution) containing in addition bacitracin (100 microgram/g), phenylmethylsulfonyl fluoride (0.5%) and iodoacetamide (1 mM). The mixture is chilled on ice for 60 minutes with occasional agitation, then centrifuged at 40,000 g for 30 minutes. The supernatant, containing the solubilized protein, may be purified immediately or frozen at -70° for later purification.
The solubilized protein preparation obtained from about 10 g of cell membrane is purified using 100 ml of the affinity gel described in Example 2. The protein solution and gel are stirred overnight in the cold. The gel is washed with 20 volumes of HEPES solution, pH 7.2, by filtration. The adsorbed protein is eluted with 10^-3 M amiloride in dilute saline containing 0.5% cholate by stirring for two hours. The elution was repeated and the combined eluates are dialyzed against 100 mM HEPES/1% sodium cholate for one week in the cold, changing buffers once or twice a day. […]

[2] = molecular target: T2, Na^+ channel in crude membrane preparation (trachea epithelial) (Bos taurus, UniProt A5D7U4+F1MJW3+P55270); assay: Amiloride inhibition of crude membrane preparation; format: biochemical, bovine
T2 construct: results for both the purified reconstituted channel protein and for the crude membrane preparation; from tissue; host or cells: trachea epithelial membranes, crude preparation (bovine)
T2 sequence (P55270 1-650): T1 sequence (P55270 1-650)
T2 sequence (A5D7U4 1-641): T1 sequence (A5D7U4 1-641)
T2 sequence (F1MJW3 1-652): T1 sequence (F1MJW3 1-652)

SMILES: N=C(N)NC(=O)c1nc(Cl)c(N)nc1N [amiloride, 3,5-diamino-N-(aminoiminomethyl)-6-chloropyrazinecarboxamide]
- IC50 ([1]; Amiloride, IC50 (micromolar), PURIFIED, Table I, trachea epithelial, purified reconstituted channel protein): 70 nM
- IC50 ([1]; IC50 (amiloride sensitivity of purified channel), purified channel): ~70 nM
- IC50 [2]: 100 nM
